Bounds are passed on as bounds.

One data set deals with MCF7. Description: Antiproliferative activity against human MCF7 cells after 48 hrs by CellTiter-Glo luminescent cell viability assay. The class given is functional, cell-based. The settings on record: MCF7, 48 h.
Data set [1] relates to Saccharomyces cerevisiae. Description: Cytotoxicity against Saccharomyces cerevisiae YRE1001 up to 100 ug/ml after 48 hrs by liquid drug assay.
The next data set deals with A549. Description: Antiproliferative activity against human A549 cells after 48 hrs by CellTiter-Glo luminescent cell viability assay. The class given is functional, cell-based. The settings on record: A549, 48 h.
Another data set deals with HBL-100. Description: Antiproliferative activity against human HBL100 cells after 48 hrs by CellTiter-Glo luminescent cell viability assay. The class given is functional, cell-based. As to conditions: HBL-100, 48 h.
In data set [2] the test system is Saccharomyces cerevisiae. Kind of data set: Inhibition of Pdr5 ATPase activity in Saccharomyces cerevisiae YRE1001 plasma membranes assessed as residual activity at 50 ug/ml after 20 mins in presence of ATP by colorimetric assay relative to control.
The test system of data set [3] is Saccharomyces cerevisiae. Description: Inhibition of Pdr5 in Saccharomyces cerevisiae YRE1001 plasma membranes assessed as reduction in rhodamine 6G transport by measuring relative fluorescence intensity at 500 ug/ml preincubated with enzyme followed by ATP addition measured for 20 mins by fluorescence assay relative to control. Also on record: scale not given: the % may be the effect or the level left.

The test system of data set [4] is Saccharomyces cerevisiae. Description: Inhibition of Pdr5 ATPase activity in Saccharomyces cerevisiae YRE1001 plasma membranes assessed as residual activity at 5 ug/ml after 20 mins in presence of ATP by colorimetric assay relative to control.
The test system of data set [5] is Saccharomyces cerevisiae. Description: Inhibition of Pdr5 in Saccharomyces cerevisiae YRE1001 plasma membranes assessed as reduction in rhodamine 6G transport by measuring relative fluorescence intensity at 50 ug/ml preincubated with enzyme followed by ATP addition measured for 20 mins by fluorescence assay relative to control. Also on record: scale not given: the % may be the effect or the level left.

The test system of data set [6] is Saccharomyces cerevisiae. Kind of data set: Inhibition of Pdr5 in Saccharomyces cerevisiae YRE1001 plasma membranes assessed as reduction in rhodamine 6G transport by measuring relative fluorescence intensity at 5 ug/ml preincubated with enzyme followed by ATP addition measured for 20 mins by fluorescence assay relative to control. Also on record: scale not given: the % may be the effect or the level left.

The test system of data set [7] is Saccharomyces cerevisiae. Kind of data set: Inhibition of Pdr5 ATPase activity in Saccharomyces cerevisiae YRE1001 plasma membranes assessed as residual activity at 500 ug/ml after 20 mins in presence of ATP by colorimetric assay relative to control.
The test system of data set [8] is Saccharomyces cerevisiae. Kind of data set: Inhibition of Pdr5 ATPase activity in Saccharomyces cerevisiae YRE1001 plasma membranes assessed as residual activity at 250 ug/ml after 20 mins in presence of ATP by colorimetric assay relative to control.
The subject of data set [9] is Saccharomyces cerevisiae. Kind of data set: Inhibition of Pdr5 ATPase activity in Saccharomyces cerevisiae YRE1001 plasma membranes assessed as residual activity at 125 ug/ml after 20 mins in presence of ATP by colorimetric assay relative to control.
Data set [10] relates to Saccharomyces cerevisiae. Description: Inhibition of Pdr5 in Saccharomyces cerevisiae YRE1001 plasma membranes assessed as reduction in rhodamine 6G transport by measuring relative fluorescence intensity at 125 ug/ml preincubated with enzyme followed by ATP addition measured for 20 mins by fluorescence assay relative to control. Set-up: scale not given: the % may be the effect or the level left.

The test system of data set [11] is Saccharomyces cerevisiae. Description: Inhibition of Pdr5 ATPase activity in Saccharomyces cerevisiae YRE1001 plasma membranes assessed as residual activity at 13 ug/ml after 20 mins in presence of ATP by colorimetric assay relative to control.
Data set [12] has as its system Saccharomyces cerevisiae. Description: Inhibition of Pdr5 in Saccharomyces cerevisiae YRE1001 plasma membranes assessed as reduction in rhodamine 6G transport by measuring relative fluorescence intensity at 13 ug/ml preincubated with enzyme followed by ATP addition measured for 20 mins by fluorescence assay relative to control. Set-up: scale not given: the % may be the effect or the level left.

As for `O=C1C=CC[C@H]([C@H]2C[C@@H]2c2ccccc2)O1`, the concentration for half-maximal inhibition (IC50) in the data set on MCF7 came to 48.2 µM; in the data set with A549, 11.6 µM; in the data set on HBL-100 it was 14.4 µM. Also, the Activity entry in the data set on Saccharomyces cerevisiae [1] is “Toxic”.

On to `O=C1C=CC[C@@H](/C=C/C2CCCCC2)O1`, for which the IC50 in the data set on MCF7 was greater than 100 µM; in the data set on A549 it was 68.6 µM; in the data set with HBL-100 it was 48.2 µM. The Activity entry is “Toxic” in the data set with Saccharomyces cerevisiae [1]; 74.7% in the data set on Saccharomyces cerevisiae [2]; 0% in the data set on Saccharomyces cerevisiae [3]; 88% with Saccharomyces cerevisiae [4]; 37% in the data set on Saccharomyces cerevisiae [5]; 86% in the data set on Saccharomyces cerevisiae [6]. Further, the Activity in the data set with Saccharomyces cerevisiae [7] was 53%.

Turning to `O=C1C=CC[C@@H](/C=C/c2ccccc2)O1`, the values for the IC50 in the data set on MCF7, in the data set with A549 and in the data set with HBL-100 were greater than 100 µM, 70.3 µM and greater than 100 µM, respectively. In addition, the Activity entry in the data set on Saccharomyces cerevisiae [1] was “Toxic”.

On to `O=C1C=CC[C@H]([C@@H]2C[C@H]2c2ccccc2)O1`, for which the IC50 in the data set on MCF7 is greater than 100 µM; in the data set with A549, 62.8 µM; in the data set with HBL-100, 43.4 µM. In addition, the Activity entry in the data set on Saccharomyces cerevisiae [1] is given as “Toxic”.

`O=C1C=CC[C@H](/C=C/c2ccc(F)cc2)O1`: the 50% inhibitory concentration (IC50) came to 76.2 µM in the data set on MCF7, 10.2 µM with A549 and 14.1 µM with HBL-100. Also, the Activity entry with Saccharomyces cerevisiae [1] is listed as “Toxic”.

On to `O=C1CCC[C@@H]([C@H]2C[C@@H]2c2ccccc2)O1`, for which the concentration for half-maximal inhibition (IC50) in the data set with MCF7, in the data set with A549 and with HBL-100 was greater than 100 µM throughout. For the same compound, the Activity result in the data set on Saccharomyces cerevisiae [1] was “Toxic”.

For `COc1ccc(/C=C/[C@@H]2CC=CC(=O)O2)cc1`, the IC50 in the data set with MCF7 was 88.7 µM; in the data set with A549, greater than 100 µM; in the data set with HBL-100, greater than 100 µM. Moreover, in the data set on Saccharomyces cerevisiae [1], the Activity entry is listed as “Toxic”.

`O=C1C=CC[C@@H]([C@H]2C[C@@H]2c2ccccc2)O1`: the IC50 with MCF7 came to 68.3 µM; with A549 it was 15.2 µM; in the data set on HBL-100, 34.9 µM. In the data set on Saccharomyces cerevisiae [1], the Activity result is “Toxic”.

Turning to `O=C1CCC[C@H]([C@H]2C[C@@H]2c2ccccc2)O1`, the IC50 in the data set on MCF7, in the data set on A549 and in the data set with HBL-100 was greater than 100 µM throughout. Also, the Activity result in the data set with Saccharomyces cerevisiae [1] is given as “Toxic”.

Turning to `O=C1CCC[C@H]([C@@H]2C[C@H]2c2ccccc2)O1`, the IC50 in the data set with MCF7, in the data set on A549 and in the data set on HBL-100 was greater than 100 µM each time. Besides, the Activity result in the data set with Saccharomyces cerevisiae [1] is “Toxic”.

Turning to `COc1ccc(/C=C/[C@H]2CC=CC(=O)O2)cc1`, the IC50 in the data set with MCF7, in the data set on A549 and in the data set on HBL-100 was greater than 100 µM in each case. Moreover, the Activity entry was “Non-Toxic” in the data set with Saccharomyces cerevisiae [1]; 8.7% with Saccharomyces cerevisiae [2]; 0% with Saccharomyces cerevisiae [3]; 25.7% in the data set with Saccharomyces cerevisiae [4]; 4% with Saccharomyces cerevisiae [5]; 44% with Saccharomyces cerevisiae [6]. Further, the Activity with Saccharomyces cerevisiae [7] was determined as 0%.

For the compound `O=C1C=CC[C@H](/C=C/c2ccccc2)O1` [GONIOTHALAMIN], the figures for the concentration for half-maximal inhibition (IC50) with MCF7, in the data set with A549 and in the data set on HBL-100 were 55.5 µM, 5.7 µM and 20.9 µM, respectively. In addition, the Activity entry in the data set with Saccharomyces cerevisiae [1] is “Toxic”; in the data set on Saccharomyces cerevisiae [2] it was 30%; in the data set with Saccharomyces cerevisiae [3], -2%; in the data set with Saccharomyces cerevisiae [4], 71.7%; in the data set on Saccharomyces cerevisiae [5] it was 10%; in the data set on Saccharomyces cerevisiae [6], 60%. In the data set on Saccharomyces cerevisiae [7], the Activity was found to be 24.3%.

Consider `O=C1C=CC[C@@H](/C=C/c2ccc([N+](=O)[O-])cc2)O1`, for which the IC50 in the data set on MCF7, in the data set on A549 and in the data set on HBL-100 was greater than 100 µM each time. Besides, in the data set with Saccharomyces cerevisiae [1], the Activity entry is “Toxic”.

Turning to `O=C1C=CC[C@H](/C=C/C2CCCCC2)O1`, the IC50 with MCF7 is greater than 100 µM; in the data set on A549 it was 31 µM; with HBL-100, 29 µM. The Activity entry in the data set on Saccharomyces cerevisiae [1] was “Toxic”; in the data set with Saccharomyces cerevisiae [2], 79%; with Saccharomyces cerevisiae [3], -8%; with Saccharomyces cerevisiae [4] it was 98%; in the data set on Saccharomyces cerevisiae [5], 18%; in the data set on Saccharomyces cerevisiae [6], 91%. In the data set with Saccharomyces cerevisiae [7], the Activity came to 56%.

Turning to `C[C@H](Cc1ccccc1)[C@H]1CCCC(=O)O1`, the IC50 with MCF7, with A549 and with HBL-100 was greater than 100 µM each time. Moreover, the Activity entry with Saccharomyces cerevisiae [1] is recorded as “Toxic”.

Turning to `C[C@@H](Cc1ccccc1)[C@H]1CCCC(=O)O1`, the 50% inhibitory concentration (IC50) with MCF7, in the data set with A549 and with HBL-100 was greater than 100 µM each time. Besides, the Activity result in the data set with Saccharomyces cerevisiae [1] is “Toxic”.

With `O=C1C=CC[C@H](/C=C/c2ccc([N+](=O)[O-])cc2)O1`, the Activity in the data set on Saccharomyces cerevisiae [8] is 50%; with Saccharomyces cerevisiae [1], “Toxic”; with Saccharomyces cerevisiae [9], 51%; with Saccharomyces cerevisiae [10], 21%; with Saccharomyces cerevisiae [11], 79.3%; in the data set with Saccharomyces cerevisiae [12] it was 54%. Also, the IC50 in the data set on MCF7 turned out to be 28.8 µM; with A549, 15.4 µM; in the data set with HBL-100, 6.7 µM.

As for `O=C1C=CC[C@@H](/C=C/c2ccc(F)cc2)O1`, the IC50 in the data set on MCF7, in the data set on A549 and with HBL-100 was greater than 100 µM in each case. Also, the Activity result in the data set on Saccharomyces cerevisiae [1] was “Toxic”; with Saccharomyces cerevisiae [2] it was 40.7%; with Saccharomyces cerevisiae [3], 10%; in the data set on Saccharomyces cerevisiae [4], 71%; in the data set with Saccharomyces cerevisiae [5], 75%; in the data set with Saccharomyces cerevisiae [6], 99%. For the same compound, the Activity with Saccharomyces cerevisiae [7] was determined as 26.3%.

Take `O=C1C=CCC(/C=C/c2ccccc2)O1` (racemic): the half-inhibitory concentration (IC50) in the data set on MCF7 was greater than 100 µM; in the data set with A549 it was 34.7 µM; in the data set with HBL-100, 22.4 µM. Also, the Activity result with Saccharomyces cerevisiae [1] is on record as “Toxic”.

These data come from ChEMBL document CHEMBL4043067, “Synthesis and cytotoxic activities of goniothalamins and derivatives” (Bioorg Med Chem, 2017).
